Tests used:
[1] = system: HT1080 cells; type: cell-based, human
[2] = system: human cervix adenocarcinoma HeLa cells; type: cell-based
[3] = target: uPA (Homo sapiens, UniProt P00749); conditions: cited from earlier work
[4] = system: HeLa cells; type: cell-based, human

CNC(=O)[C@@H](NC(=O)[C@H](CC(C)C)[C@H](O)C(=O)NO)C(C)(C)C [BB-2516, Marimastat]
protection of HT1080 cells against WT-PA plus FP59 [1]: did not protect
protection of HT1080 cells against challenge with PA-L1 and PA-L2 plus FP59 [1]: conferred clear protection

CNC(=O)[C@H](Cc1c[nH]c2ccccc12)NC(=O)[C@@H](CC(=O)NO)CC(C)C [GM6001]
protection of HT1080 cells against WT-PA plus FP59 [1]: did not protect
protection of HT1080 cells against challenge with PA-L1 and PA-L2 plus FP59 [1]: conferred clear protection

Aprotinin
effect on killing of HeLa cells by PrAg-U2 plus FP59 [2]: protected
effect on killing of HeLa cells by native PrAg plus FP59 [2]: had no effect

PCPGRVVGG
uPA:tPA selectivity [3]: 3.0

PGSGKSA
uPA:tPA selectivity [3]: 121

PGSGRSA
uPA:tPA selectivity [3]: 20

PQRGRSA
uPA:tPA selectivity [3]: 0.005

SGRSA
cleavage by uPA, times more efficiently than the physiological cleavage site present in plasminogen [3]: 1363 fold
uPA:tPA selectivity [3]: 20

tranexamic acid [tranexainic acid]
effect on activation of pro-uPA by HeLa cells [4]: strongly inhibited
effect on binding/processing (activation) of PrAg-U2 on the HeLa cell surface [4]: strongly inhibited
effect on processing/activation of native PrAg by cells [4]: not
